Paper PMC6394990, “Detailed characterization of the solution kinetics and thermodynamics of biotin, biocytin and HABA binding to avidin and streptavidin” (PLoS ONE, 2019)
Several values for one entry are separate records, joined by “and”; a condition that tells them apart may be missing. Equal values may be shown once.

Molecular target: T1, streptavidin (SAV) (Streptomyces avidinii, UniProt P22629)
T1 construct: purchased Sigma Aldrich (St. Louis, MO)
Experiment: Stopped-flow association kinetics of dye-labeled biotin probes binding to streptavidin (F(t), rF(t); Arrhenius plots/global fitting)
Experimental: These reactions were carried out in a buffered solution of 10 mM Tris-HCl, 100 mM KCl, 2.5 mM MgCl2 and 1 mM CaCl2 at pH 8 and only AV-BcO reactions included pH 9 and 10. […] The deglycosylation of AV (for comparative association reactions) was carried out using the provided standard protocol with endoglycosidase H [47], both with and without incubation of a denaturant solution (2% SDS and 1M 2-mercaptoethanol).
The reactions were collected with the SF instrument, described previously. […] The AC(t) and DC(t) data were baseline corrected before obtaining the signal ratio (Eq 4) as a function of time (ρt).
The constant AGain is the instrumental amplitude gain and was evaluated by solving ρ(t) using the known steady state anisotropy (rss) of the complexes which is equivalent to the r(t) at t = ∞; and H, obtained from the equivalent grating factor (G) for the filters and photo multiplier tubes in the SF. For the probes used in here G was 0.82 and H = (1-G)/(1+G) = 0.099. Knowing Again and H, the AC(t) and DC(t) signals can be solved for r(t) and F(t) (Eqs 4 and 5) and the normalized fluorescence, F¯(t) , and corrected fluorescence anisotropy, rF¯(t), were obtained when F¯(0) and rF¯(0) were scaled to 1 at t = 0.
The F¯(t) (Eq 6) is equivalent to (I||) + 2 (I⊥) and proportional to quantum yield (QYi), molar absorptivity (εi) and to the formation or disappearance of the emitting species Xi(t); and rF¯(t) including the steady state anisotropies (rss) of each fluorescent species (Eq 7).
The possible reaction models were discriminated by the squared residuals of the observed and calculated association traces of both fluorescence and anisotropy fluorescence signals, F¯(t) and rF¯(t) , respectively.

[1] = SAV, average over the dye-labeled B7 probes, used for SAV-B7
[2] = SAV, average over the dye-labeled B7 probes, used for SAV-B7, listed as B

T1 sequence (P22629 25-183): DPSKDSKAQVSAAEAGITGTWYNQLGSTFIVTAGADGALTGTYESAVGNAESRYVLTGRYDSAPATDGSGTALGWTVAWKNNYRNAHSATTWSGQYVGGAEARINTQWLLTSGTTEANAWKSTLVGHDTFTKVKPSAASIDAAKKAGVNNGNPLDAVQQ

## O=C(O)CCCC[C@@H]1SC[C@@H]2NC(=O)N[C@@H]21 [B7, d-biotin]
SAV-B
  Eaon + (-∆H°): 129 ± 10.5 kJ/mol
  ∆G°ǂ + (-∆G°): 92.9 ± 4.18 kJ/mol
  ∆S°ǂ + (-∆S°): 27.7 ± 2.0 cal/mol°K
SAV-B7, column 3 minus 4
  ΔE = Ea^Forward-Ea^Backward: -97.9 ± 16.7 kJ/mol
  ΔG° ^ǂ, Forward -ΔG° ^ǂ, Backward: -82 ± 10.5 kJ/mol
  ΔS° ^ǂ, Forward -ΔS° ^ǂ, Backward: -18.1 ± 4.5 cal/mol°K
SAV, 25°C
  fold slower than 10^9 M^-1s^-1 (diffusion limited): 13-400 X
[1]
  ΔG^ǂ, Forward: 16.7 ± 2.5 kJ/mol and 16.7 kJ/mol
  ΔS^ǂ, Forward: 6.7 ± 1.6 cal/°K·mol and 6.7 cal/°K·mol
[2]
  Ea^Forward: 25.1 ± 4.18 kJ/mol
  ΔS^ǂ, Forward: 6.7 ± 2.0 cal/°K·mol
